Results: patent US20240391870A1 (Arcturus Therapeutics, Inc., priority 2023, published 2024)

Legend:
[1] = tested on: factor VII; test: Factor VII knock down evaluation (LNP with FVII siRNA); type: in vivo, Balb/C mice; details: Table 2, plasma FVII after 48 h vs saline control; for FVII KD % 0.01 mpk: 0.01 mpk i.v.; for FVII KD % 0.03 mpk: 0.03 mpk i.v.
Experimental: Lipid formulations comprising a FVII siRNA further described below were evaluated for their knockdown activity using the protocol of this example. In the FVII evaluation, seven to eight week-old, female Balb/C mice were purchased from Charles River Laboratories (Hollister, CA). The mice were held in a pathogen-free environment and all procedures involving the mice were performed in accordance with guidelines established by the Institutional Animal Care and Use Committee (IACUC). Lipid nanoparticles containing factor VII siRNA were administered intravenously at a dosing volume of 10 mL/kg and two dose levels (0.03 and 0.01 mg/kg). After 48 h, the mice were anesthetized with isoflurane and blood was collected retro-orbitally into Microtainer® tubes coated with 0.109 M sodium citrate buffer (BD Biosciences, San Diego, CA) and processed to plasma. Plasma specimens were tested for factor VII levels immediately or stored at −80° C. for later analysis. Measurement of FVII protein in plasma was determined using the colorimetric Biophen VII assay kit (Aniara Diagnostica, USA). Absorbance was measured at 405 nm and a calibration curve was generated using the serially diluted control plasma to determine levels of factor VII in plasma from treated animals, relative to the saline-treated control animals.

[2] = tested on: hEPO; test: hEPO mRNA expression evaluation (hEPO-LNPs); type: in vivo, Balb/c mice; details: Table 2; 0.1 mpk i.v., serum hEPO after 6 hr
Experimental: Protocol for hEPO mRNA Expression Evaluation
Lipid formulations comprising a hEPO mRNA below were evaluated for their ability to express hEPO in vivo according to the protocol of this example. All animal experiments were conducted using institutionally-approved protocols (IACUC). In this protocol, female Balb/c mice at least 6-8 weeks of age were purchased from Charles River Laboratory. […] After 6 hr, blood was collected with serum separation tubes, and the serum was isolated by centrifugation. Serum hEPO levels were then measured using an ELISA assay (Human Erythropoietin Quantikine IVD ELISA Kit, R&D Systems, Minneapolis, MD).

[3] = Mouse plasma stability; type: in vitro ADME, CD-1 mouse; details: Table 2, mouse plasma 37 C, 1 uM lipid
Experimental: Lipid stock solution was prepared by dissolution of the lipid in isopropanol at the concentration of 5 mg/mL. A requisite volume of the lipid-isopropanol solution was then diluted to 100 μM concentration at a total volume of 1.0 mL with in 50:50 (v/v) ethanol/water. Ten microliters of this 100 μM solution was spiked into 1.0 mL of mouse plasma (BioIVT, Cat. No.: MSE00PLNHUNN, CD-1 mouse, anticoagulant: sodium heparin, not filtered) that was pre-warmed to 37° C. and was stirred at 50 rpm with a magnetic stir bar. The starting concentration of lipids in plasma was thus 1 μM. At time points 0, 15, 30, 45, 60 and 120 min, 0.1 mL of the plasma was withdrawn from the reaction mixture and the protein was precipitated by adding 0.9 mL of ice-cold 4:1 (v/v) acetonitrile/methanol with 1 μg/mL of a selected internal standard lipid added. After filtration through a 0.45 micron 96-well filtering plate, the filtrates were analyzed by LC-MS (Thermo Fisher's Vanquish UHPLC—LTQ XL linear ion trap Mass Spectrometer); Waters XBridge BEH Shield RP18 2.5 micron (2.1×100 mm) column with its matching guard column. Mobile phase A was 0.1% formic acid in water, and mobile phase B was 0.1% formic acid in 1:1 (v/v) acetonitrile/methanol. Flow rate was 0.5 ml/min. Elution gradient was: Time 0-1 min: 10% B; 1-6 min: 10%-95% B; 6-8.5 min: 95% B; 8.5-9 min: 95%-10% B; 9-10 min: 10% B. Mass spectrometry was in positive scanning mode from 600-1100 m/z. The peak of the molecular ion of the lipids was integrated in the extracted ion chromatography (XIC) using Xcalibur software (Thermo Fisher). The relative peak area compared to T=0, after normalization by the peak area of the internal standard, was used as the percentage of the lipid remaining at each time point. T1/2 values were calculated using the first-order decay model.

[4] = In vivo biodegradability assay (lipid in liver); details: mouse liver, 48 h
[5] = Measured pKa in the indicated formulation
Experimental: Measured pKa values were determined based on the pH measured in the indicated formulation (i.e., EPO or FVII formulation).

| SMILES | Percent remaining in mouse plasma after 2 h [3] [%] | In vivo degradability (ng/tissue) at 48h 0.03 mpk ([4]; Table 2) | In vivo degradability (ng/tissue) at 48h 0.1 mpk ([4]; Table 2) | pKa ([5]; EPO formulation) | pKa: EPO ([5]; Table 2, measured in EPO formulation) | In vivo degradability (ng/tissue) at 48h 0.03 mpk ([4]; Table 1) [ng/tissue] | In vivo degradability (ng/tissue) at 48h 0.1 mpk ([4]; Table 1) [ng/tissue] | FVII KD % 0.01 mpk [1] [%] | FVII KD % 0.03 mpk [1] [%] | EPO exprssn (ng/mL) 0.1 mpk [2] [ng/mL] |
| --- | --- | --- | --- | --- | --- | --- | --- | --- | --- | --- |
| CCCCCC(C)(C)C(=O)OCC(COC(=O)C(C)(C)CCCCC)OC(=O)CCCN(CCCC(=O)OC(COC(=O)C(C)(C)CCCCC)COC(=O)C(C)(C)CCCCC)C(=O)SCCCN(C)C [LIPID 19, ((4,4′-((((3-(Dimethylamino)propyl)thio)carbonyl)-azanediyl)bis(butanoyl))bis(oxy))bis(propane-2,1,3-triyl)tetrakis(2,2-dimethylheptanoate)] | 100 | <340 ng/tissue | 847 ng/tissue | 6.27 | (6.27/ND) | <340 | 847 |  |  | 958 |
| CCCCCCC(C)C(=O)OCC(COC(=O)C(C)CCCCCC)OC(=O)CCCN(CCCC(=O)OC(COC(=O)C(C)CCCCCC)COC(=O)C(C)CCCCCC)C(=O)OCCCN(C)C (centres unmarked) [LIPID 35, [2-[4-[3-(dimethylamino)propoxycarbonyl-[4-[2-(2-methyloctanoyloxy)-1-(2-methyloctanoyloxymethyl)ethoxy]-4-oxo-butyl]amino]butanoyloxy]-3-(2-methyloctanoyloxy)propyl]2-methyloctanoate] |  |  |  |  |  |  |  | 68.5 | 84 | 678 |
| Cc1ccc(CCC(C)C(=O)OCC(COC(=O)C(C)CCc2ccc(C)cc2)OC(=O)CCCN(CCCC(=O)OC(COC(=O)C(C)CCc2ccc(C)cc2)COC(=O)C(C)CCc2ccc(C)cc2)C(=O)SCCCN(C)C)cc1 (centres unmarked) [LIPID 41, ((4,4′-((((3-(dimethylamino)propyl)thio)carbonyl)azanediyl)bis (butanoyl))bis(oxy))bis(propane-2,1,3-triyl)tetrakis(2-methyl-4-(p-tolyl)butanoate)] |  |  |  |  |  |  |  | 56 | 76 | 1209 |
| CCCCCCCCC(=O)OCC(COC(=O)CCCCCCCC)COC(=O)CCN(CCC(=O)OCC(COC(=O)CCCCCCCC)COC(=O)CCCCCCCC)C(=O)SCCN(C)C [LIPID 26] | 100 | BLOQ | BLOQ |  |  |  |  | 8 | 50 | 70 |
| CCCCCCC(C)C(=O)OCC(COC(=O)C(C)CCCCCC)OC(=O)CCCN(CCCC(=O)OC(COC(=O)C(C)CCCCCC)COC(=O)C(C)CCCCCC)C(=O)NCCCN(C)C (centres unmarked) [LIPID 36, [2-[4-[3-(dimethylamino)propylcarbamoyl-[4-[2-(2-methyloctanoyloxy)-1-(2-methyloctanoyloxymethyl)ethoxy]-4-oxo-butyl]amino]butanoyloxy]-3-(2-methyloctanoyloxy)propyl]2-methyloctanoate] |  |  |  |  |  |  |  | 0 | 0 | 0 |
| CN(C)CCCSC(=O)N(CCCC(=O)OC(COC(=O)C1CC2CCCCC2C1)COC(=O)C1CC2CCCCC2C1)CCCC(=O)OC(COC(=O)C1CC2CCCCC2C1)COC(=O)C1CC2CCCCC2C1 (centres unmarked) [LIPID 28] | 100 | BLOQ | BLOQ |  |  |  |  | 26 | 75.3 | 216 |
| CCCCC(C)(C)CC(=O)OCC(C)(COC(=O)CCN(CCC(=O)OCC(C)(COC(=O)CC(C)(C)CCCC)COC(=O)CC(C)(C)CCCC)C(=O)SCCCN(C)C)COC(=O)CC(C)(C)CCCC [LIPID 23] | 100 | <340 ng/tissue | <340 ng/tissue |  |  |  |  | 17 | 61.7 | 730 |
| CCCCCCCC(=O)OCC(C)(COC(=O)CCCCCCC)COC(=O)CCN(CCC(=O)OCC(C)(COC(=O)CCCCCCC)COC(=O)CCCCCCC)C(=O)SCCCN(C)C [LIPID 24] | 100 | BLOQ | BLOQ |  |  |  |  | 60.5 | 87.4 | 1420 |
| CCCCCCCCC(=O)OCC(COC(=O)CCCCCCCC)COC(=O)CCCN(CCCC(=O)OCC(COC(=O)CCCCCCCC)COC(=O)CCCCCCCC)C(=O)SCCCN(C)C [LIPID 25] | 100 | BLOQ | BLOQ |  |  |  |  | 63 | 95 | 2945 |

Further lines, with some results ahead:

| Percent remaining in mouse plasma after 2 h [3] [%] | In vivo degradability (ng/tissue) at 48h 0.03 mpk ([4]; Table 2) | In vivo degradability (ng/tissue) at 48h 0.1 mpk ([4]; Table 2) | pKa ([5]; EPO formulation) | pKa: EPO ([5]; Table 2, measured in EPO formulation) | In vivo degradability (ng/tissue) at 48h 0.03 mpk ([4]; Table 1) [ng/tissue] | In vivo degradability (ng/tissue) at 48h 0.1 mpk ([4]; Table 1) [ng/tissue] | SMILES | FVII KD % 0.01 mpk [1] [%] | FVII KD % 0.03 mpk [1] [%] | EPO exprssn (ng/mL) 0.1 mpk [2] [ng/mL] |
| --- | --- | --- | --- | --- | --- | --- | --- | --- | --- | --- |
| 100 | <340 ng/tissue | <340 ng/tissue |  |  |  |  | CC1CCC(CC(=O)OCC(C)(COC(=O)CCN(CCC(=O)OCC(C)(COC(=O)CC2CCC(C)CC2)COC(=O)CC2CCC(C)CC2)C(=O)SCCCN(C)C)COC(=O)CC2CCC(C)CC2)CC1 (centres unmarked) [LIPID 21] | 57 | 90 | 1028 |
| 100 | <340 ng/tissue | <340 ng/tissue |  |  |  |  | CC1CCC(CCC(=O)OCC(C)(COC(=O)CCC2CCC(C)CC2)COC(=O)CCN(CCC(=O)OCC(C)(COC(=O)CCC2CCC(C)CC2)COC(=O)CCC2CCC(C)CC2)C(=O)SCCCN(C)C)CC1 (centres unmarked) [LIPID 20] | 36 | 74 | 1148 |
| 100 | BLOQ | BLOQ |  |  |  |  | CC1CCC(CCC(=O)OCC(COC(=O)CCC2CCC(C)CC2)COC(=O)CCN(CCC(=O)OCC(COC(=O)CCC2CCC(C)CC2)COC(=O)CCC2CCC(C)CC2)C(=O)SCCCN(C)C)CC1 (centres unmarked) [LIPID 27] | 48.1 | 84.9 | 69 |
| 100 | BLOQ | BLOQ |  |  |  |  | CN(C)CCCSC(=O)N(CCCC(=O)OC(COC(=O)C1CCC2CCCC2C1)COC(=O)C1CCC2CCCC2C1)CCCC(=O)OC(COC(=O)C1CCC2CCCC2C1)COC(=O)C1CCC2CCCC2C1 (centres unmarked) [LIPID 30, ((4,4′-((((3-(dimethylamino)propyl)thio)carbonyl)azanediyl)bis (butanoyl))bis(oxy))bis(propane-2,1,3-triyl)tetrakis(octahydro-1H-indene-5-carboxylate)] | 3.2 | 62.1 | 95 |
| 100 | <340 ng/tissue | <340 ng/tissue |  |  |  |  | CCC1CCC(C(=O)OCC(C)(COC(=O)CCN(CCC(=O)OCC(C)(COC(=O)C2CCC(CC)CC2)COC(=O)C2CCC(CC)CC2)C(=O)SCCCN(C)C)COC(=O)C2CCC(CC)CC2)CC1 (centres unmarked) [LIPID 22] | 56 | 87 | 1104 |
